Data taken from patent US20150111262A1, “METHODS AND MATERIALS FOR PRODUCING FIVE CARBON BUILDING BLOCKS FROM PROLINE” (INVISTA North America S.á r.l., priority 2013, published 2015).

Legend:
diamine transaminase = conditions: Kim, 1964; cited from earlier work
[1] = system: reversible 5-aminovalerate transaminase; conditions: Barker et al., J. Biol. Chem., 1987; cited from earlier work
[2] = system: reversible ω-transaminase (SEQ ID NO: 7); conditions: Kaulmann et al., 2007; cited from earlier work
[3] = system: reversible 4-aminobubyrate:2-oxoglutarate transaminase; conditions: Yonaha et al., Eur. J. Biochem., 1985; cited from earlier work
[4] = system: ω-transaminase of SEQ ID NO: 9; test: ω-transaminase activity, glutarate semialdehyde to 5-aminopentanoate (reverse direction); format: biochemical, Pseudomonas syringae; conditions: cell free extract; 10 mM glutarate semialdehyde, 10 mM L-alanine, pH 7.5, 25° C., 4 h; RP-HPLC; FIG. 9
Procedure: A sequence encoding an N-terminal His-tag was added to the genes from Chromobacterium violaceum and Pseudomonas syringae encoding the ω-transaminases of SEQ ID NOs: 7 and 9, respectively (see FIG. 7) such that N-terminal HIS tagged ω-transaminases could be produced. Each of the resulting modified genes was cloned into a pET21a expression vector under control of the T7 promoter and each expression vector was transformed into a BL21[DE3] E. coli host. The resulting recombinant E. coli strains were cultivated at 37° C. in a 250 mL shake flask culture containing 50 mL LB media and antibiotic selection pressure, with shaking at 230 rpm. Each culture was induced overnight at 16° C. using 1 mM IPTG.
The pellet from each induced shake flask culture was harvested via centrifugation. Each pellet was resuspended and lysed via sonication. The cell debris was separated from the supernatant via centrifugation and the cell free extract was used immediately in enzyme activity assays.
Enzyme activity in the reverse direction (i.e., glutarate semialdehyde to 5-aminopentanoate) were performed in a buffer composed of a final concentration of 50 mM HEPES buffer (pH=7.5), 10 mM glutarate semialdehyde, 10 mM L-alanine and 100 μM pyridoxyl 5′ phosphate. […] The formation of pyruvate was quantified via RP-HPLC.

[5] = system: carboxylate reductase of SEQ ID NO 6; test: carboxylate reductase activity, glutarate semialdehyde to pentanedial; format: biochemical, Segniliparus rotundus; conditions: SEQ ID NO 6, enhanced by sfp gene product; 2 mM glutarate semialdehyde, 1 mM ATP, 1 mM NADPH, pH 7.5, room temperature, 20 min; FIG. 15
Procedure: The N-terminal His-tagged carboxylate reductase of SEQ ID NO 6 (see Example 2 and FIG. 7) was assayed using glutarate semialdehyde as substrate. The enzyme activity assay was performed in triplicate in a buffer composed of a final concentration of 50 mM HEPES buffer (pH=7.5), 2 mM glutarate semialdehyde, 10 mM MgCl2, 1 mM ATP and 1 mM NADPH. The enzyme activity assay reaction was initiated by adding purified carboxylate reductase and phosphopantetheine transferase or the empty vector control to the assay buffer containing the glutarate semialdehyde and then incubated at room temperature for 20 min. The consumption of NADPH was monitored by absorbance at 340 nm.

[6] = molecular target: T1, carboxylate reductase of SEQ ID NO: 1 (Mycobacterium marinum, UniProt B2HN69); test: carboxylate reductase activity, 5-hydroxypentanoate to 5-hydroxypentanal; format: biochemical; conditions: SEQ ID NO 1, enhanced by sfp gene product; 1 mM ATP, 1 mM NADPH, pH 7.5, room temperature, 20 min; FIG. 12
T1 construct: His-tag (N); made in house; host or cells: E. coli BL21[DE3], pET Duet
T1 sequence (B2HN69 whole entry): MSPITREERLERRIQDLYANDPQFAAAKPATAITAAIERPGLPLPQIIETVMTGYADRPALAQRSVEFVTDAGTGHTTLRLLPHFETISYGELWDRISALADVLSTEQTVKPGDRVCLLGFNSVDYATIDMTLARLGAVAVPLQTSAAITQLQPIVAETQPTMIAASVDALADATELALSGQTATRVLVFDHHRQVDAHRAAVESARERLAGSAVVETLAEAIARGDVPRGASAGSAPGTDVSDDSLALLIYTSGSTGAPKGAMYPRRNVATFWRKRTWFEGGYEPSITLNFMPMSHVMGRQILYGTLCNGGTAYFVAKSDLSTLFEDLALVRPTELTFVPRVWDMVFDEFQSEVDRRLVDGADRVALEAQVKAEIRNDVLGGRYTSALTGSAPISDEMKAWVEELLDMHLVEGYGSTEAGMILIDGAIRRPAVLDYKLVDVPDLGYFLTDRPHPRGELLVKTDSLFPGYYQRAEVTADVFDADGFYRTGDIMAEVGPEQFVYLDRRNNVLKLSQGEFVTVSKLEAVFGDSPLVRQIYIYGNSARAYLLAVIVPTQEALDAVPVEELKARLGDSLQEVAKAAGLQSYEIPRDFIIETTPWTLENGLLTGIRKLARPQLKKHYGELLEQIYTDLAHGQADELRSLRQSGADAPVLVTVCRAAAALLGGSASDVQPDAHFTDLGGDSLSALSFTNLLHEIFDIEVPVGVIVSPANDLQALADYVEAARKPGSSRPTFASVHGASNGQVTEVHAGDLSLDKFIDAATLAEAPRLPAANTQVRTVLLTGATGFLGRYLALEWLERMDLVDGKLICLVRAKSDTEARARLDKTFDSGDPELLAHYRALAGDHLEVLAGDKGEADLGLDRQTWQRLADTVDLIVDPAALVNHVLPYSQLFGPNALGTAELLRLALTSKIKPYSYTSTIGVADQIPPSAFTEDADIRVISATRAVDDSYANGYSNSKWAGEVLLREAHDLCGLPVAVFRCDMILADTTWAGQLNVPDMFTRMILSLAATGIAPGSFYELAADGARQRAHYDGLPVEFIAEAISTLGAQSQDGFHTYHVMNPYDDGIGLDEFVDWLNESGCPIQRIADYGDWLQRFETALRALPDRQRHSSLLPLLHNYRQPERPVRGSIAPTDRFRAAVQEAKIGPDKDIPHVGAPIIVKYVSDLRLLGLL
Procedure: (§1) A sequence encoding a His-tag was added to the genes from Mycobacterium marinum, Mycobacterium smegmatis, Segniliparus rugosus, Mycobacterium massiliense, and Segniliparus rotundus that encode the carboxylate reductases of SEQ ID NOs: 1, 2, 3, 5 and 6, respectively (see FIG. 7) such that N-terminal HIS tagged carboxylate reductases could be produced. Each of the modified genes was cloned into a pET Duet expression vector alongside a sfp gene encoding a His-tagged phosphopantetheine transferase from Bacillus subtilis, both under control of the T7 promoter.
(§2) Each expression vector was transformed into a BL21[DE3] E. coli host and the resulting recombinant E. coli strains were cultivated at 37° C. in a 250 mL shake flask culture containing 50 mL LB media and antibiotic selection pressure, with shaking at 230 rpm. Each culture was induced overnight at 37° C. using an auto-induction media.
(§3) The pellet from each induced shake flask culture was harvested via centrifugation. Each pellet was resuspended and lysed via sonication. […]
(§4) Enzyme activity (i.e., 5-hydroxypentanoate to 5-hydroxypentanal) assays were performed in triplicate in a buffer composed of a final concentration of 50 mM HEPES buffer (pH=7.5), 2 mM 5-hydroxypentanal, 10 mM MgCl2, 1 mM ATP, and 1 mM NADPH. […] The consumption of NADPH was monitored by absorbance at 340 nm.

[7] = system: carboxylate reductase of SEQ ID NO: 2; test: as above; format: biochemical, Mycobacterium smegmatis; conditions: SEQ ID NO 2, enhanced by sfp gene product; 1 mM ATP, 1 mM NADPH, pH 7.5, room temperature, 20 min; FIG. 12
Procedure: as §1, §2, §3, §4

[8] = system: carboxylate reductase of SEQ ID NO: 3; test: as above; format: biochemical, Segniliparus rugosus; conditions: SEQ ID NO 3, enhanced by sfp gene product; 1 mM ATP, 1 mM NADPH, pH 7.5, room temperature, 20 min; FIG. 12
Procedure: as §1, §2, §3, §4

[9] = system: carboxylate reductase of SEQ ID NO: 5; test: as above; format: biochemical, Mycobacterium massiliense; conditions: SEQ ID NO 5, enhanced by sfp gene product; 1 mM ATP, 1 mM NADPH, pH 7.5, room temperature, 20 min; FIG. 12
Procedure: as §1, §2, §3, §4

[10] = system: carboxylate reductase of SEQ ID NO: 6; test: as above; format: biochemical, Segniliparus rotundus; conditions: SEQ ID NO 6, enhanced by sfp gene product; 1 mM ATP, 1 mM NADPH, pH 7.5, room temperature, 20 min; FIG. 12
Procedure: as §1, §2, §3, §4

For NCCCCCCCN [1,7 diaminoheptane], the diamine transaminase activity (diamine transaminase) is listed as “demonstrated activity”.

In the case of NCCCCCC(=O)O [6-aminohexanoate], the “activity for the conversion to adipate semialdehyde” value [1] is given as “demonstrated analogous activity”, the “activity accepting as amino donor” value [2] is given as “demonstrated analogous activity” and the “activity for the conversion to adipate semialdehyde” value [3] is given as “demonstrated analogous activity”.

In the case of O=CCCCC(=O)O [glutarate semialdehyde], the “acceptance as substrate (conversion of L-alanine to pyruvate) vs empty vector control” value [4] is reported as “accepted glutarate semialdehyde as substrate” and the “acceptance as substrate (consumption of NADPH, absorbance at 340 nm) vs empty vector control” value [5] is reported as “accepted glutarate semialdehyde as substrate”.

In the case of O=C(O)CCCCO [5-hydroxypentanoate], the “acceptance as substrate (consumption of NADPH, absorbance at 340 nm) vs empty vector control” value [6] is reported as “accepted 5-hydroxypentanoate as substrate”, the “acceptance as substrate (consumption of NADPH, absorbance at 340 nm) vs empty vector control” value [7] is reported as “accepted 5-hydroxypentanoate as substrate” and the “acceptance as substrate (consumption of NADPH, absorbance at 340 nm) vs empty vector control” value [8] is reported as “accepted 5-hydroxypentanoate as substrate”. The “acceptance as substrate (consumption of NADPH, absorbance at 340 nm) vs empty vector control” value [9] was “accepted 5-hydroxypentanoate as substrate” and the “acceptance as substrate (consumption of NADPH, absorbance at 340 nm) vs empty vector control” value [10] was “accepted 5-hydroxypentanoate as substrate”.
